# Experimental data published in US11648205B1, “Buccal formulation of avanafil with enhanced bioavailability and prolonged duration” (King Abdulaziz University, priority 2022, dated 2023).
# Test: Solubility study of AVA-solid dispersions in distilled water
# Assay type: physicochemical
# Settings: thermodynamic from solid, shaking water bath 48 h
# Description: A solubility study for the prepared solid dispersions was conducted separately in distilled water, as described previously, with full details published (34). In screw-capped vials, 10 mL of distilled water was placed, and an excess amount of either the pure drug or the prepared solid dispersions was added. The vials were kept in a shaking water bath, for 48 h, in a thermostatically controlled shaking water bath (Model 1031; GFL Corporation, Burgwedel, Germany). Samples from the vial were obtained and were determined in triplicate using spectrophotometric assay at λmax 285 nm, and the data were expressed as the average ± the standard deviation. The AVA-solid dispersion with the highest water solubility was determined and selected for further investigations. Powder X-ray Diffraction (PXRD)
compound,measurement,value
"COc1ccc(CN=c2[nH]c(N3CCC[C@H]3CO)ncc2C(=O)NCc2ncccn2)cc1Cl [AVA, Avanafil]",solubility at 48 h,3 µg/mL
